# Assay results taken from US20230192648A1, “IMMUNOREGULATORY COMPOUNDS” (NIMML INSTITUTE, priority 2021, published 2023).
# “Also recorded” adds a separate entry of the source.
# How the values were obtained:
# [1] = test system: bm12 model of systemic inflammation; assay: bm12 mouse model of systemic inflammation; assay type: in vivo
# [2] = test system: DSS model of acute inflammatory bowel disease; assay: DSS model of acute inflammatory bowel disease; assay type: in vivo, mouse; conditions: oral, 10 mg/kg once daily, relative to vehicle; for proportion of CD4+ T cells in the colonic lamina propria: FIG. 3A; for F4/80hi macrophages (colon): FIG. 3C
# Experimental: DSS model. Mice were given DSS in drinking water for seven days. At project initiation, mice were 8 weeks of age and began dosing 24 hours after being placed on DSS. Mice were weighed and scored daily for symptoms of disease (diarrhea, rectal bleeding, rectal inflammation, overall behavior). Treatments were prepared within a 0.5% methylcellulose (12-15 cP) solution. The dosage used was 10 mg/kg delivered once daily. Flow Cytometry. Colons were collected into RPMI/FBS buffer containing collagenase (300 U/mL) and DNase (50 U/mL) for digestion. Tissues were digested for 60 minutes under stirring at 37° C. Resultant cellular suspensions were filtered through 100 µm strainers, centrifuged (300 x g, 8 min), and washed in fresh RPMI. Following filtration of the resulting single cell suspensions, immune cells were purified by Percoll gradient of cell-containing 40% Percoll overlayed onto 70% Percoll solution. After centrifugation, interphase was collected and washed to obtain enriched colonic lamina propria cell fractions. Cells were labeled with mixtures of extracellular (CD45, CD3, CD4, CD8, CD25, F4/80, CD11b, MHCII) antibodies in a sequential live staining in 96-well plates. Data was acquired using a FACS Celesta flow cytometer with FACSDiva software.
# [3] = test system: influenza A (H1N1); assay: Influenza A (H1N1) infection of mice, survival; assay type: in vivo, mouse; conditions: 25 mg/kg orally daily, FIG. 4; for delay of first mortality: vehicle mortality beginning at day 6
# Experimental: Wild type C57BL/6 mice were anesthetized by isoflurane inhalation. Mice were infected with influenza A (H1N1) intranasally at a challenge titer of 2 x 10^4 TCID50/mL. Mice were treated daily with NIM-1001-2, NIM-1001-8, or NIM-1001-9 at a dose of 25 mg/kg orally via gavage. Mice were monitored daily.
# [4] = test system: experimental autoimmune encephalomyelitis; assay: Mouse model of experimental autoimmune encephalomyelitis (adoptive transfer of MOG-primed splenocytes); assay type: in vivo; conditions: oral 20 mg/kg from 7 days post-transfer
# Experimental: Mouse model. C57BL6 mice were challenged at 10- to 16-weeks of age with MOG immunization with complete Freund’s adjuvant. MOG emulsion was administered to the cervical region and the hind flank at 100 µL per site to each mouse. After 10 days, spleens were harvested. Isolated splenocytes were cultured in the presence of MOG, IL-12 and anti-interferon gamma for 3 days. Splenocytes were then washed and injected into recipient mice at approximately 20 million cells per mouse. Oral treatment with NIM-1001-8 (20 mg/kg) or vehicle was initiated at 7 days post-transfer. Mice were be scored (0-3) daily for disease activity (coordination, gait, paralysis).
# Flow Cytometry. Spinal cords were excised and digested with papain and DNase. Immune cells were purified by Percoll gradient. Cells were labeled with mixtures of extracellular (CD45, CD3, CD4, CD8, CD25) and intracellular (IL17) antibodies in a sequential live staining in 96-well plates in preparation for flow cytometry. Data was captured on a BD FACS Celesta and analyzed using FacsDiva.
# Histology. Sections of the spinal cord from the lumbar region were extracted and fixed in formalin. Samples were embedded in paraffin and sectioned. By immunohistochemistry, samples were stained for the presence of glial fibrillary acidic protein (GFAP). Slides were assessed microscopically and scored (0-3) for the intensity and frequency of GFAP positive cells. GFAP is a common protein marker for astrocytes in the central nervous system
# [5] = test system: MRL/lpr model of systemic lupus erythematosus; assay: MRL/lpr genetic mouse model of SLE; assay type: in vivo; conditions: daily orogastric gavage from 12 weeks of age
# Experimental: Mouse model. Female MRL/lpr mice were obtained at 8 weeks of age. Mice were followed for four weeks for the development of proteinuria. […] Treatment with NIM-1001-8, or vehicle control, were administered by orogastric gavage daily, beginning at 12 weeks of age, in a 0.5% methylcellulose suspension.
# (§1) Immunological analysis. Urine was collected for assay for protein content to test for kidney function. Spleens were excised, crushed and filtered to provide a cellular suspension. Red blood cells were lysed. Cells were labeled with mixtures of extracellular (CD45, CD3, CD4, CD8, CD25) and intracellular (FOXP3, IL17) antibodies in a sequential live staining in 96-well plates in preparation for flow cytometry. Data was captured on a BD FACS Celesta and analyzed using FacsDiva.
# [6] = test system: genetic model of Alzheimer's disease; assay: Genetic mouse model of Alzheimer's disease; assay type: in vivo; conditions: oral 10 mg/kg for eight weeks, relative to vehicle
# Experimental: Mouse model. Genetically modified mice that spontaneously develop cognitive impairment at 4 months of age and histological signs of disease at 6 months of age were randomized into the project at 24 weeks of age. Mice were orally treated with vehicle or NIM-1001-8 (10 mg/kg) for eight weeks. After eight weeks of treatment, mice were evaluated using a light-dark test to measure the time spent in the light relative to the dark. This is a measure of an anxiety response. Genetically modified mice were compared to age-matched wild-type mice (negative control).
# Flow Cytometry. Brains were collected into RPMI/FBS buffer containing collagenase (300 U/mL) and DNase (50 U/mL) for digestion. Tissues were digested for 30 minutes under stirring at 37° C. Resultant cellular suspensions were filtered through 100 µm strainers, centrifuged (300 x g, 8 min), and washed in fresh RPMI. Following filtration of the resulting single cell suspensions, immune cells were purified by Percoll gradient of cell-containing 40% Percoll overlayed onto 70% Percoll solution. After centrifugation, interphase was collected and washed to obtain enriched immune cell fractions. Cells were labeled with mixtures of extracellular (CD45, CD3, CD4, CD8, CD11b, Gr1) and intracellular (IL17) antibodies in a sequential live staining in 96-well plates. Data was acquired using a FACS Celesta flow cytometer with FACSDiva software.
# [7] = test system: MPTP induced model of Parkinson's disease; assay: MPTP induced mouse model of Parkinson's disease; assay type: in vivo; conditions: oral 25 mg/kg once daily
# Experimental: Mouse model. Mice were administered intraperitoneal injections of 1-methyl-4-phenyl-1,2,3,6-tetrahydropyridine (MPTP) and probenecid three times weekly for 4 weeks. In the second week of injections, oral treatment with vehicle or NIM-1001-8 (25 mg/kg) was initiated once daily. After four weeks of injections, motor control was assessed by counting the number of step errors during a challenging beam test. Mice challenged with MPTP were compared to mice challenged with a sham injection (negative control).
# as §1, with “Flow Cytometry.” for “Immunological analysis. Urine was collected for assay for protein content to test for kidney function.”, “(IL21,” for “(FOXP3,”
# [8] = test system: IMQ-induced model of psoriasis; assay: Imiquimod (IMQ) induced model of psoriasis; assay type: in vivo, mouse; conditions: oral 20 mg/kg daily
# Experimental: IMQ-induced model. C57BL/6 mice were anesthetized, shaved, and briefly exposed to depilatory cream on the surface of the back. Mice were given three days to recover from the procedure prior to entry to the study. After 3 days, mice were challenged with approximately 60 mg of […] imiquimod cream daily by spreading cream over the shaved area. Oral treatment with vehicle or NIM-1001-8 (20 mg/kg) occurred daily.
# Analysis. Spleens were excised and crushed by microscope slides. Red blood cells were hypotonically lysed from the resultant suspension. Samples were filtered, washed and centrifuged prior to staining. Cells were labeled with mixtures of extracellular (CD45, CD3, CD4, CD8, CD25, F4/80, CD11b, MHCII) and intracellular (TNF, IL17) antibodies in a sequential live staining in 96-well plates in preparation for flow cytometry. Data was captured on a BD FACS Celesta and analyzed using FacsDiva.
# [9] = test system: NOD model of Sjogren's syndrome; assay: NOD mouse model of Sjogren's syndrome; assay type: in vivo; conditions: relative to vehicle, FIG. 10
# Experimental: NOD model. Ten-week-old female NOD mice were treated with vehicle or NIM-1001-8 (2 or 50 mg/kg) daily by oral gavage for four weeks. After conclusion of the treatment period, submandibular glands were excised and fixed in formalin. Glands were processed and H&E-stained slides were prepared. Slides were scored by blinded reviewer, on a 0 to 4 composite scale encompassing level of inflammation and disease.
# [10] = oral gavage daily, 20 mg/kg/day, relative to vehicle; FIG. 2A
# [11] = oral gavage daily, 20 mg/kg/day, relative to vehicle; FIG. 2C
# [12] = oral gavage daily, 20 mg/kg/day, relative to vehicle, FIG. 2C
smiles,measurement,setting,value
CCc1noc(/C=C/c2cncc(Oc3cc(-c4nc(C)no4)cc(Cl)n3)c2C)n1 [NIM-1001-2],spleen size in proportion to overall body weight,[1]; [10],significantly reduced
same,proportion of CD25+ FOXP3+ regulatory T cells in the spleen,[1]; [11],significantly increased
same,proportion of CD4+ T cells in the colonic lamina propria,[2],reduced
same,survival at day 10 (fraction of group),[3]; vehicle 25% survival by day 10,two-thirds
same,delay of first mortality,[3],one day
CCOC(=O)/C=C/c1cncc(Oc2cc(C(=O)NC)cc(Cl)n2)c1C [NIM-1001-4],proportion of CD25+ FOXP3+ regulatory T cells in the spleen,[1]; [12],significantly increased; also recorded: largest magnitude of increase
same,spleen size in proportion to overall body weight,[1]; [10],reduced the normalized spleen size at a lesser degree
"CCOC(=O)/C=C/c1cncc(Oc2cc(C(=O)OC)cc(Cl)n2)c1C [NIM-1001-8, methyl (E)-2-chloro-6-((5-(3-ethoxy-3-oxoprop-1-en-1-yl)-4-methylpyridin-3-yl)oxy)isonicotinate]",proportion of CD25+ FOXP3+ regulatory T cells in the spleen,[1]; [12],significantly increased; also recorded: largest magnitude of increase
same,spleen size in proportion to overall body weight,[1]; [10],significantly reduced
same,proportion of CD4+ T cells in the colonic lamina propria,[2],reduced
same,F4/80hi macrophages (colon),[2],significant reductions
same,survival at day 10,[3]; vehicle 25% survival by day 10,83%
same,delay of first mortality,[3],two days
same,overall disease severity (score 0-3),[4]; FIG. 5A,amelioration
same,proportion of CD4+ IL17+ T cells in the spinal cord,[4]; FIG. 5B,decreased
same,GFAP positive staining in the spinal cord,[4]; FIG. 5C,decreased
same,"urine protein levels, reduction","[5]; relative to vehicle, FIG. 6A",more than two-fold
same,splenic CD25+ FOXP3+ regulatory T cells,"[5]; P < 0.05, FIG. 6B",significant increase
same,splenic CD4+ IL17+ cells,"[5]; P < 0.05, FIG. 6C",significant decrease
same,time spent in the light (light-dark test),"[6]; FIG. 7A, 10 mg/kg",significantly increased; also recorded: restored the time to equal that of the negative control group
same,proportion of neutrophils in the brain,[6]; FIG. 7B,decreased
same,proportion of CD4+ IL17+ T cells in the brain,[6]; FIG. 7C,decreased
same,number of step errors during a challenging beam test,"[7]; relative to vehicle, FIG. 8A",significantly reduced; also recorded: near complete abrogation of MPTP effects
same,CD4+ IL21+ T cells within the spleen,"[7]; P < 0.05, FIG. 8B",significant reductions
same,CD4+ IL17+ T cells within the spleen,"[7]; P < 0.05, FIG. 8C",significant reductions
same,proportion of TNF+ CD4+ T cells in the spleen,"[8]; relative to vehicle, FIG. 9A",significantly reduced
same,proportion of IL17+ CD4+ T cells in the spleen,"[8]; relative to vehicle, FIG. 9B",significantly reduced
same,proportion of F4/80hi inflammatory macrophages,[8]; FIG. 9C,decreased
same,histological severity of disease in the submandibular glands (score 0 to 4),[9]; 2 mg/kg daily by oral gavage for four weeks,significantly reduced
same,histological severity of disease in the submandibular glands (score 0 to 4),[9]; 50 mg/kg daily by oral gavage for four weeks,significantly reduced
CCNC(=O)/C=C/c1cncc(Oc2nccc(C(=O)NC)n2)c1C [NIM-1001-9],spleen size in proportion to overall body weight,[1]; [10],significantly reduced
same,proportion of CD25+ FOXP3+ regulatory T cells in the spleen,[1]; [11],significantly increased
same,survival at day 10 (fraction of group),[3]; vehicle 25% survival by day 10,two-thirds
same,delay of first mortality,[3],one day
CCOC(=O)/C=C/c1cncc(Nc2cc(C(=O)OC)cc(Cl)n2)c1 [NIM-1001-10],spleen size in proportion to overall body weight,[1]; [10],reduced the normalized spleen size at a lesser degree
CCc1noc(/C=C/c2cncc(Nc3cc(-c4nc(C)no4)cc(Cl)n3)c2)n1 [NIM-1001-11],proportion of CD4+ T cells in the colonic lamina propria,[2],reduced
same,F4/80hi macrophages (colon),[2],significant reductions
CCNC(=O)/C=C/c1cncc(Nc2nccc(C(=O)NC)n2)c1 [NIM-1001-12],spleen size in proportion to overall body weight,[1]; [10],significantly reduced
same,proportion of CD25+ FOXP3+ regulatory T cells in the spleen,[1]; [11],significantly increased
same,proportion of CD4+ T cells in the colonic lamina propria,[2],reduced
same,F4/80hi macrophages (colon),[2],significant reductions
